Measurements taken from patent publication US4683221A, “Lymphocyte-activating polypeptides” (Scripps Clinic and Research Foundation, priority 1986, dated 1987).
Ends that are not written are not given here.

Legend:
Assay type in all cases: cell-based
mouse spleen cells = test: Polyclonal antibody response assay (Ig secretion measured by ELISA); details: C57BL/6 spleen cells, 5 days; equimolar amounts of polypeptide, 1.5 mg/ml of p23 as standard
Excerpt: This assay measures the activity of a polypeptide in potentiating an in vitro polyclonal antibody response using mouse spleen cells.
For the generation of immunoglobulin (Ig) secretion response, spleen cells from inbred male 8-15 week old C57BL/6 mice (The Jackson Laboratory, Bar Harbor, ME) were suspended in RPMI 1640 medium (M.A. Bioproducts, Walkersville, MD) supplemented with 2 millimolar (mM) L-glutamine, one percent BME vitamins (GIBCO, Grand Island, NY), 5×10^-5 molar (M) 2-mercaptoethanol, 7.5 percent fetal calf serum (FCS;GIBCO), and 0.001 percent gentamicin (Schering Corp., Kenilworth, NJ). Cells (6×10^5) in 0.2 milliliters (ml) of the supplemented medium were added to flat-bottomed microtiter plate wells (No. 3596: Costar, Cambridge, MA). Cultures were established in triplicate, and a polypeptide-containing composition was added in a volume of 50 microliters per well (ul/well).
To establish comparison between polypeptides of different lengths, equimolar amounts of polypeptide were used, with 1.5 milligrams per milliter (mg/ml) of the 23-residue polypeptide corresponding in sequence to positions 335-357 of the human IgGl myeloma protein as standard. […] Supernatants from triplicate cell culture wells were harvested, pooled, centrifuged to remove cells and stored at -20° C. Concentrations of Ig in the supernatants were determined by the ELISA assay described hereinbelow.
The ELISA utilized to measure polyclonal activation was a so-called "sandwich" assay in which the assayed entity, mouse Ig molecules, are bound to solid phase-bound anti-mouse Ig antibodies and then bound by indicator (alkaline phosphatase)-linked anti-mouse Ig antibodies.
(B) 100 Microliters of various dilutions of either the Ig standard or culture supernatants were then admixed in PBS-Tween. […]
Each well then received 100 ul of 1 mg p-nitrophenyl phosphate (Sigma Chemical Co., St. Louis, MO) in 0.05 M carbonate, pH 9.8. The reaction was stopped with 50 ml of 0.3 N NaOH, and the light absorbance at 410 nanometers (nm) was measured by using a Dynatech model MR600 ELISA reader. […]

[1] = test system: human plastic-adherent monocytes; test: Prostaglandin E secretion (radioimmune assay); details: 25 ug/ml of p23 or an equimolar amount of another polypeptide, 24 hours; initial data
Experimental: (§1) The cell lines used in these studies were: (1) murine plastic-adherent macrophages; (2) human plastic-adherent monocytes; and (3) the murine macrophage-like cell line denominated P388.D1 [Snyderman et al., J. Immunol., 119, 2060 (1977)]. […] Thereafter, the cell culture supernatant was assayed for the presence of a prostaglandin E using a commercially available radioimmune assay (Seragen).

[2] = test system: murine plastic-adherent macrophages; test: Prostaglandin E secretion (radioimmune assay); details: 25 ug/ml of p23 or an equimolar amount of another polypeptide, 24 hours; initial data
Experimental: as §1

[3] = test system: murine macrophage-like cell line denominated P388.D1; test: Prostaglandin E secretion (radioimmune assay); details: 25 ug/ml of p23 or an equimolar amount of another polypeptide, 24 hours; initial data
Experimental: as §1

| Substance | Ig Found (amount of polyclonal Ig molecules found in the assay) (mouse spleen cells) [µg/mL] | secretion of a prostaglandin E into the culture medium [1] | secretion of a prostaglandin E into the culture medium [2] | secretion of a prostaglandin E into the culture medium [3] |
| --- | --- | --- | --- | --- |
| LPPSREE [I-51(a), Leu-Pro-Pro-Ser-Arg-Glu-Glu] | 10.2 | incapable of inducing | incapable of inducing | incapable of inducing |
| QVYTLPPSREE [I-51(c)] | 11.7 | incapable of inducing | incapable of inducing | incapable of inducing |
| YTLPPSREE [I-51(b)] | 10.7 | incapable of inducing | incapable of inducing | incapable of inducing |
